Marks after values point to notes of the source that are not given here.
Key:
[1] = system: A549 human lung cancer xenografts; experiment: Growth inhibition on A549 human lung cancer xenografts in nude mice; format: in vivo, BALB/c nude mice; settings: for Tumor inhibition rate: by tumor weight; for Tumor weight: tumors excised after 21 days
Method: (§1) The dose volume was 0.4 ml per 20 g, that is, the dose was 96 mg/kg. Then, the solution was diluted to other desired concentrations with 0.9% sodium chloride solution.
(§2) Docetaxel injection, manufactured by Jiangsu Hengrui Pharmaceutical Co., Ltd., lot number: 15011215, specification: 0.5 ml: 20 mg. Formulation method: during use, 20 mg of docetaxel injection of the above specification was added to 1.5 ml of a solvent for the docetaxel injection to give a concentration of 10 mg/ml, and then fully diluted with saline to 1 mg/ml. The dose volume was 0.2 ml per 20 g, that is, the dose was 10 mg/kg.
(§3) BALB/c nude mice, provided by Changzhou Kavens Laboratory Animal Co., Ltd. (Experimental Animal Production License: SOCK (Su) 2011-0003), age: 35-40 days, weight: 18-24 g, female.
A549 human lung cancer xenografts in nude mice was established by inoculating human lung cancer A549 cell line subcutaneously to the axillary fossa of nude mice in an amount of 2*10^6 cells/animal.
(§4) Human lung cancer A549 cell line in logarithmic growth phase was prepared into a cell suspension of 1×10^8 cells/ml under aseptic conditions and subcutaneously inoculated to the right axillary fossa of nude mice in a volume of 0.1 ml. The size of the xenograft in the nude mice was measured with a vernier caliper. After the xenografts grew to 100-300 mm^3, the animals were randomly grouped. The anti-tumor effect of the test agents was dynamically observed by measuring the size of the xenografts. The size of the xenografts was measured once every 3 days. The dose volume was 0.4 ml/20 g. Twenty-one days later, the mice were sacrificed and the tumors were surgically excised and weighed. The tumor volume (TV) is calculated by a formula below: TV=½×a×b^2
The relative tumor volume (RTV) is calculated based on the measurements by a formula: RTV=Vt/V0, where V0 is the measured tumor volume upon being caged (i.e., d0) and Vt is the tumor volume at each measurement. The evaluation index of the anti-tumor activity is relative tumor growth rate T/C (%), which is calculated by a formula below: […]
in which TRTV is the RTV of the treatment group; and CRTV is the RTV of the negative control group.
The tumor inhibition rate is calculated by a formula below: […]
Tweight is the average tumor weight of the treatment group; and Cweight is the average tumor weight of the negative control group.

[2] = Effect on body weight of nude mice with A549 human lung cancer xenografts; format: in vivo, BALB/c nude mice; settings: for Initial body weight: before dosing; for Final body weight: once every 3 days, end of study (21 days)
Method: as §1, §2, §3, §4

[3] = background statement; cited from earlier work
[4] = background statement; cited from earlier work; remark: listed apart in the source
[5] = Docetaxel 10 mg/kg, tail vein, once every 3 days, 7 doses, 21 d
[6] = Docetaxel 10 mg/kg, tail vein, once every 3 days, 3 d
[7] = Docetaxel 10 mg/kg, tail vein, once every 3 days, 6 d
[8] = Docetaxel 10 mg/kg, tail vein, once every 3 days, 9 d
[9] = Docetaxel 10 mg/kg, tail vein, once every 3 days, 12 d
[10] = Docetaxel 10 mg/kg, tail vein, once every 3 days, 15 d
[11] = Docetaxel 10 mg/kg, tail vein, once every 3 days, 18 d
[12] = XBB-023 24 mg/kg, tail vein, once every 3 days, 7 doses, 21 d
[13] = XBB-023 24 mg/kg, tail vein, once every 3 days, 3 d
[14] = XBB-023 24 mg/kg, tail vein, once every 3 days, 6 d
[15] = XBB-023 24 mg/kg, tail vein, once every 3 days, 9 d
[16] = XBB-023 24 mg/kg, tail vein, once every 3 days, 12 d
[17] = XBB-023 24 mg/kg, tail vein, once every 3 days, 15 d
[18] = XBB-023 24 mg/kg, tail vein, once every 3 days, 18 d
[19] = XBB-023 48 mg/kg, tail vein, once every 3 days, 7 doses, 21 d
[20] = XBB-023 48 mg/kg, tail vein, once every 3 days, 3 d
[21] = XBB-023 48 mg/kg, tail vein, once every 3 days, 6 d
[22] = XBB-023 48 mg/kg, tail vein, once every 3 days, 9 d
[23] = XBB-023 48 mg/kg, tail vein, once every 3 days, 12 d
[24] = XBB-023 48 mg/kg, tail vein, once every 3 days, 15 d
[25] = XBB-023 48 mg/kg, tail vein, once every 3 days, 18 d
[26] = XBB-023 96 mg/kg, tail vein, once every 3 days, 7 doses, 21 d
[27] = XBB-023 96 mg/kg, tail vein, once every 3 days, 3 d
[28] = XBB-023 96 mg/kg, tail vein, once every 3 days, 6 d
[29] = XBB-023 96 mg/kg, tail vein, once every 3 days, 9 d
[30] = XBB-023 96 mg/kg, tail vein, once every 3 days, 12 d
[31] = XBB-023 96 mg/kg, tail vein, once every 3 days, 15 d
[32] = XBB-023 96 mg/kg, tail vein, once every 3 days, 18 d

CC(=O)O[C@@]12CO[C@@H]1C[C@H](O)[C@@]1(C)C(=O)[C@H](O)C3=C(C)[C@@H](OC(=O)[C@H](O)[C@@H](NC(=O)OC(C)(C)C)c4ccccc4)C[C@@](O)([C@@H](OC(=O)c4ccccc4)[C@H]21)C3(C)C [Docetaxel]
Tumor volume ([1]; Docetaxel 10 mg/kg group, 0 d (baseline)): 100.58 ± 20.87 mm^3 | Tumor inhibition rate ([1]; Docetaxel 10 mg/kg, once every 3 days, 7 doses): 72.16% | Tumor inhibition rate ([1]; Docetaxel 10 mg/kg, once every 3 days, 7 doses, listed as docetaxel): 72.16% | Tumor weight ([1]; Docetaxel 10 mg/kg, once every 3 days): 0.33 ± 0.15 g | RTV (relative tumor volume) [1, 5]: 2.40 ± 0.99 | T/C (relative tumor growth rate) [1, 5]: 21.15% | Tumor volume [1, 5]: 226.65 ± 56.45* mm^3 | T/C (relative tumor growth rate) ([1]; Docetaxel 10 mg/kg, tail vein, once every 3 days, 7 doses, 21 d, listed as docetaxel): 21.15% | RTV (relative tumor volume) [1, 6]: 1.62 ± 0.37 | T/C (relative tumor growth rate) [1, 6]: 56.09% | Tumor volume [1, 6]: 157.30 ± 26.48** mm^3 | RTV (relative tumor volume) [1, 7]: 1.49 ± 0.39 | T/C (relative tumor growth rate) [1, 7]: 41.39% | Tumor volume [1, 7]: 147.47 ± 41.99** mm^3 | RTV (relative tumor volume) [1, 8]: 1.59 ± 0.47 | T/C (relative tumor growth rate) [1, 8]: 34.23% | Tumor volume [1, 8]: 155.55 ± 44.12** mm^3 | RTV (relative tumor volume) [1, 9]: 2.15 ± 0.81 | T/C (relative tumor growth rate) [1, 9]: 33.77% | Tumor volume [1, 9]: 208.93 ± 68.26** mm^3 | RTV (relative tumor volume) [1, 10]: 2.24 ± 0.43 | T/C (relative tumor growth rate) [1, 10]: 26.80% | Tumor volume [1, 10]: 224.22 ± 57.63** mm^3 | RTV (relative tumor volume) [1, 11]: 1.87 ± 0.28 | T/C (relative tumor growth rate) [1, 11]: 19.30% | Tumor volume [1, 11]: 186.80 ± 42.03** mm^3 | effect on the body weight of the experimental mice (in words) ([2]; 10 mg/kg docetaxel, P<0.01): Extremely significant effect | Initial body weight ([2]; Docetaxel 10 mg/kg group): 22.50 ± 1.26 g | Final body weight ([2]; Docetaxel 10 mg/kg): 15.17 ± 0.90 g | oral bioavailability [3]: less than 8% | intracellular concentration higher than that of paclitaxel [4]: 3 times

Polyethylene Glycol Monomethyl Ether (Mn=1000) Docetaxel-2′-Diglycolate [XBB-023]
Tumor volume ([1]; XBB-023 24 mg/kg group, 0 d (baseline)): 101.08 ± 20.73 mm^3 | Tumor inhibition rate ([1]; XBB-023 24 mg/kg, once every 3 days, 7 doses, 24 mg/kg): 34.73% | Tumor weight ([1]; XBB-023 24 mg/kg, once every 3 days): 0.78 ± 0.22 g | RTV (relative tumor volume) [1, 12]: 6.39 ± 0.81 | Tumor volume [1, 12]: 660.00 ± 210.71* mm^3 | T/C (relative tumor growth rate) ([1]; XBB-023 24 mg/kg, tail vein, once every 3 days, 7 doses, 21 d, 24 mg/kg): 56.30% | RTV (relative tumor volume) [1, 13]: 2.27 ± 0.52 | T/C (relative tumor growth rate) [1, 13]: 78.90% | Tumor volume [1, 13]: 232.16 ± 79.30* mm^3 | RTV (relative tumor volume) [1, 14]: 2.38 ± 0.37 | T/C (relative tumor growth rate) [1, 14]: 66.13% | Tumor volume [1, 14]: 244.45 ± 80.88** mm^3 | RTV (relative tumor volume) [1, 15]: 2.85 ± 0.39 | T/C (relative tumor growth rate) [1, 15]: 61.19% | Tumor volume [1, 15]: 289.34 ± 82.35** mm^3 | RTV (relative tumor volume) [1, 16]: 3.68 ± 0.51 | T/C (relative tumor growth rate) [1, 16]: 57.80% | Tumor volume [1, 16]: 371.41 ± 95.01** mm^3 | RTV (relative tumor volume) [1, 17]: 4.91 ± 1.58 | T/C (relative tumor growth rate) [1, 17]: 58.72% | Tumor volume [1, 17]: 522.84 ± 249.70* mm^3 | RTV (relative tumor volume) [1, 18]: 5.68 ± 1.66 | T/C (relative tumor growth rate) [1, 18]: 58.60% | Tumor volume [1, 18]: 602.28 ± 288.50** mm^3 | Tumor volume ([1]; XBB-023 48 mg/kg group, 0 d (baseline)): 101.49 ± 18.47 mm^3 | Tumor inhibition rate ([1]; XBB-023 48 mg/kg, once every 3 days, 7 doses, 48 mg/kg): 68.55% | Tumor weight ([1]; XBB-023 48 mg/kg, once every 3 days): 0.38 ± 0.14 g | RTV (relative tumor volume) [1, 19]: 2.90 ± 0.37 | Tumor volume [1, 19]: 299.13 ± 86.76** mm^3 | T/C (relative tumor growth rate) ([1]; XBB-023 48 mg/kg, tail vein, once every 3 days, 7 doses, 21 d, 48 mg/kg): 25.56% | RTV (relative tumor volume) [1, 20]: 1.59 ± 0.35 | T/C (relative tumor growth rate) [1, 20]: 55.23% | Tumor volume [1, 20]: 159.57 ± 38.77** mm^3 | RTV (relative tumor volume) [1, 21]: 1.80 ± 0.18 | T/C (relative tumor growth rate) [1, 21]: 49.90% | Tumor volume [1, 21]: 180.89 ± 31.39** mm^3 | T/C (relative tumor growth rate) [1, 22]: 52.80% | Tumor volume [1, 22]: 245.14 ± 40.82** mm^3 | RTV (relative tumor volume) [1, 23]: 3.02 ± 0.53 | T/C (relative tumor growth rate) [1, 23]: 47.50% | Tumor volume [1, 23]: 302.66 ± 60.48 mm^3 | RTV (relative tumor volume) [1, 24]: 2.61 ± 0.47 | T/C (relative tumor growth rate) [1, 24]: 31.23% | Tumor volume [1, 24]: 264.78 ± 68.29** mm^3 | RTV (relative tumor volume) [1, 25]: 2.50 ± 0.37 | T/C (relative tumor growth rate) [1, 25]: 25.76% | Tumor volume [1, 25]: 257.22 ± 76.37** mm^3 | Tumor volume ([1]; XBB-023 96 mg/kg group, 0 d (baseline)): 102.83 ± 14.74 mm^3 | inhibition rate higher than that in the positive control group ([1]; XBB-023 96 mg/kg versus 10 mg/kg docetaxel): 16.29% | Tumor inhibition rate ([1]; XBB-023 96 mg/kg, once every 3 days, 7 doses, 96 mg/kg): 88.45% | Tumor weight ([1]; XBB-023 96 mg/kg, once every 3 days): 0.14 ± 0.03 g | RTV (relative tumor volume) [1, 26]: 1.46 ± 0.32 | Tumor volume [1, 26]: 146.15 ± 20.51** mm^3 | T/C (relative tumor growth rate) ([1]; XBB-023 96 mg/kg, tail vein, once every 3 days, 7 doses, 21 d, 96 mg/kg): 12.83% | RTV (relative tumor volume) [1, 27]: 1.54 ± 0.31 | T/C (relative tumor growth rate) [1, 27]: 53.47% | Tumor volume [1, 27]: 154.44 ± 15.73** mm^3 | RTV (relative tumor volume) [1, 28]: 1.26 ± 0.15 | T/C (relative tumor growth rate) [1, 28]: 35.11% | Tumor volume [1, 28]: 129.15 ± 19.29** mm^3 | RTV (relative tumor volume) [1, 29]: 1.54 ± 0.22 | T/C (relative tumor growth rate) [1, 29]: 33.18% | Tumor volume [1, 29]: 15628 ± 17.71** mm^3 | RTV (relative tumor volume) [1, 30]: 1.54 ± 0.33 | T/C (relative tumor growth rate) [1, 30]: 24.19% | Tumor volume [1, 30]: 156.91 ± 35.05** mm^3 | RTV (relative tumor volume) [1, 31]: 1.06 ± 0.28 | T/C (relative tumor growth rate) [1, 31]: 12.63% | Tumor volume [1, 31]: 107.31 ± 27.45** mm^3 | RTV (relative tumor volume) [1, 32]: 1.13 ± 0.21 | T/C (relative tumor growth rate) [1, 32]: 11.66% | Tumor volume [1, 32]: 114.16 ± 17.61** mm^3 | effect on the body weight of the experimental mice (in words) ([2]; 48 mg/kg XBB-023, P<0.05): significant effect | effect on the body weight of the experimental mice (in words) ([2]; 96 mg/kg XBB-023, P<0.01): Extremely significant effect | Initial body weight ([2]; XBB-023 24 mg/kg group): 22.17 ± 1.57 g | Final body weight ([2]; XBB-023 24 mg/kg): 23.17 ± 0.90 g | Initial body weight ([2]; XBB-023 48 mg/kg group): 21.33 ± 1.37 g | Final body weight ([2]; XBB-023 48 mg/kg): 20.00 ± 0.82 g | Initial body weight ([2]; XBB-023 96 mg/kg group): 22.00 ± 0.82 g | Final body weight ([2]; XBB-023 96 mg/kg): 16.00 ± 2.31 g
